# Experimental data as given in DBAASP.
# What was measured:
# Assay in all cases: ≥ marks a high value that may be exact or a test limit, other limits are often not marked, values filed in µg/mL are converted to µM
# [1] = system: Salmonella enterica subsp. enterica CMCC 47020
# [2] = system: Salmonella enterica subsp. enterica serovar Pullorum C79-13
# [3] = system: Salmonella enterica subsp. enterica serovar Typhimurium ATCC 14028
# [4] = system: Staphylococcus aureus CMCC 26074
# [5] = system: Bacillus cereus CMCC 6303
# [6] = system: Staphylococcus aureus ATCC 25923
# [7] = system: Salmonella enterica subsp. enterica serovar Typhimurium C77-31
# [8] = system: Cronobacter sakazakii ATCC 29544
# [9] = system: Salmonella enterica subsp. enterica serovar Typhi CMCC 50071
# [10] = system: Listeria monocytogenes CMCC 54004
# [11] = system: Escherichia coli UB1005
# [12] = system: Escherichia coli DSM 1116
# [13] = system: Bacillus subtilis DSM 347
# [14] = system: Staphylococcus xylosus DSM 20267
# [15] = system: Franconibacter helveticus DSM 18390
# [16] = system: Acinetobacter baumannii ATCC 17978
# [17] = system: Staphylococcus aureus HNCMO 112011
# [18] = system: Escherichia coli ATCC 8739
# [19] = system: Candida albicans ATCC MYA-2876
# [20] = system: Candida tropicalis ATCC 750
# [21] = system: Candida tropicalis IOC 4560
# [22] = system: Staphylococcus aureus ATCC 29213
# [23] = system: Micrococcus luteus A270
# [24] = system: Bacillus subtilis ATCC 6633
# [25] = system: Candida albicans MDM8
# [26] = system: Bacillus megaterium ATCC 10778
# [27] = system: Escherichia coli SBS 363
# [28] = system: Enterobacter cloacae beta-12
# [29] = system: Pseudomonas aeruginosa ATCC 27853
# [30] = system: Serratia marcescens ATCC 4112
# [31] = system: Salmonella typhimurium ATCC 23565
# [32] = system: Shigella flexneri CP87
# [33] = system: Bacillus megaterium QMB 1551
# [34] = system: Serratia marcescens ATCC 17991
# [35] = system: Bacillus thuringiensis serovar tenebrionis DSM 2803
# [36] = system: Clavibacter michiganensis subsp. insidiosus NCPPB 1109
# [37] = system: Bacillus subtilis NRRL B-237
# [38] = system: Brenneria salicis NCPPB 2530
# [39] = system: Pseudomonas syringae pv. tomato NCPPB 1106
# [40] = system: Salmonella enterica subsp. enterica serovar Newport
# [41] = system: Escherichia coli NCTC 9001
# [42] = system: Agrobacterium tumefaciens DSM 3129
# [43] = system: Sinorhizobium meliloti ZB314
# [44] = system: Paenibacillus alvei LMG 6922
smiles,measurement,setting,value
CC[C@H](C)[C@H](NC(=O)[C@H](CCCN=C(N)N)NC(=O)[C@H](CCCN=C(N)N)NC(=O)[C@H](Cc1c[nH]c2ccccc12)NC(=O)[C@@H](N)CCCN=C(N)N)C(=O)N[C@H](C(=O)N[C@H](C(=O)N[C@H](C(=O)N[C@@H](CCCN=C(N)N)C(=O)N[C@H](C(=O)N[C@@H](CCCN=C(N)N)C(=O)N[C@@H](CCCN=C(N)N)C(N)=O)C(C)C)[C@@H](C)CC)C(C)C)C(C)C [RWRRIVVIRVRR],MIC,[1],≥ 128 µM
same,MIC,[2],≥ 32 µM
same,MIC,[3],32 µM
same,MIC,[4],≥ 64 µM
same,MIC,[5],≥ 64 µM
same,MIC,[6],256 µM
same,MIC,[7],≥ 32 µM
same,MIC,[8],16 µM
same,MIC,[9],8 µM
same,MIC,[10],2 µM
same,MIC,[11],16 µM
CC(C)C[C@H](NC(=O)[C@H](CCCCN)NC(=O)[C@H](CC(C)C)NC(=O)[C@H](CCCCN)NC(=O)[C@H](CC(C)C)NC(=O)[C@@H](N)CCCCN)C(N)=O [KLKLKL],MIC,[12],≥ 345 µM
same,MIC,[13],≥ 345 µM
same,MIC,[14],≥ 345 µM
same,MIC,[15],≥ 345 µM
CC(C)C[C@H](NC(=O)[C@@H]1CCCN1C(=O)[C@H](CCCN=C(N)N)NC(=O)[C@H](CCCN=C(N)N)NC(=O)[C@H](CS)NC(=O)[C@H](CCC(N)=O)NC(=O)[C@@H](N)CCC(N)=O)C(=O)N[C@@H](Cc1ccc(O)cc1)C(=O)N[C@@H](CS)C(=O)N[C@@H](CCCN=C(N)N)C(=O)N[C@@H](CCCN=C(N)N)C(=O)N[C@@H](CCCN=C(N)N)C(=O)N[C@@H](Cc1c[nH]c2ccccc12)C(=O)N[C@@H](CO)C(=O)N[C@@H](Cc1cnc[nH]1)C(=O)N1CCC[C@H]1C(=O)N[C@@H](CCC(N)=O)C(=O)N[C@@H](Cc1ccccc1)C(=O)N[C@@H](CCC(=O)O)C(=O)N[C@@H](CCCCN)C(=O)O [QQCRRPLYCRRRWSHPQFEK],MIC,[16],25 µM
same,MIC,[17],25 µM
same,MIC,[18],25 µM
CC[C@H](C)[C@H](NC(=O)[C@H](Cc1ccc(O)cc1)NC(=O)[C@@H](N)CCCN=C(N)N)C(=O)N[C@@H](Cc1ccc(O)cc1)C(=O)N[C@@H](CC(C)C)C(=O)N[C@@H](CO)C(=O)NCC(=O)N[C@H](C(=O)N[C@@H](CC(=O)O)C(=O)N[C@@H](CCCN=C(N)N)C(=O)N[C@H](C(=O)N[C@H](C(=O)N[C@@H](CCCN=C(N)N)C(=O)N[C@@H](C)C(=O)N[C@@H](CCCCN)C(=O)N[C@@H](CC(C)C)C(=O)NCC(=O)N[C@@H](CCCCN)C(=O)O)[C@@H](C)CC)[C@@H](C)CC)[C@@H](C)O [RYIYLSGTDRIIRAKLGK],MIC,[19],≥ 40 µM
same,MIC,[20],≥ 40 µM
CC(C)C[C@H](NC(=O)[C@H](C)NC(=O)[C@H](CCCN=C(N)N)NC(=O)[C@H](CC(C)C)NC(=O)[C@@H](N)Cc1ccccc1)C(=O)N[C@@H](Cc1c[nH]c2ccccc12)C(=O)N[C@@H](CC(N)=O)C(=O)N[C@H](C(=O)N[C@@H](C)C(=O)N[C@@H](CCCCN)C(=O)N[C@@H](CO)C(=O)N[C@H](C(=O)N[C@@H](Cc1ccccc1)C(N)=O)C(C)C)C(C)C [FLRALWNVAKSVF],MIC,[21],1.6 µM
same,MIC,[22],1.6 µM
same,MIC,[23],1.6 µM
same,MIC,[24],0.8 µM
same,MIC,[25],3.1 µM
same,MIC,[26],1.6 µM
same,MIC,[27],1.6 µM
same,MIC,[28],12.5 µM
same,MIC,[29],12.5 µM
same,MIC,[30],0.4 µM
CC[C@H](C)[C@H](NC(=O)[C@@H]1CCCN1C(=O)[C@H](CCCN=C(N)N)NC(=O)[C@H](CC(N)=O)NC(=O)[C@H](CC(N)=O)NC(=O)CN)C(=O)N[C@@H](Cc1ccc(O)cc1)C(=O)N[C@H](C(=O)N1CCC[C@H]1C(=O)N[C@@H](CCC(N)=O)C(=O)N1CCC[C@H]1C(=O)N[C@@H](CCCN=C(N)N)C(=O)N1CCC[C@H]1C(=O)N1CCC[C@H]1C(=O)N[C@@H](Cc1cnc[nH]1)C(=O)N1CCC[C@H]1C(=O)N[C@@H](CCCN=C(N)N)C(=O)N[C@@H](CC(C)C)C(=O)O)[C@@H](C)CC [GNNRPIYIPQPRPPHPRL],MIC,[31],0.0471 µM
same,MIC,[32],0.0471 µM
same,MIC,[33],≥ 47.1 µM
same,MIC,[34],≥ 94.2 µM
same,MIC,[35],≥ 94.2 µM
same,MIC,[36],≥ 47.1 µM
same,MIC,[37],≥ 94.2 µM
same,MIC,[38],9.4 nM
same,MIC,[39],0.0471 µM
same,MIC,[40],0.0942 µM
same,MIC,[41],0.0942 µM
same,MIC,[42],0.0942 µM
same,MIC,[43],9.4 nM
same,MIC,[44],≥ 94.2 µM
